Counter-ions that a name gives are not always drawn.
Molecular target: histidine-tagged recombinant human TrkA, cytoplasmic domain (Homo sapiens (Human), UniProt P04629)
Assay: TrkA ELISA Assay
Assay type: biochemical
Settings: 2.5 nM TrkA, 500 μM ATP, 25 minutes; read-out: TrkA Elisa Enzyme IC50
Method in brief: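 2.5 nM enzyme with 500 μM ATP on poly(Glu,Ala,Tyr 6:3:1)-coated plates, 25 min at ambient temperature in 25 mM MOPS pH 7.5, 5 mM MgCl2, 0.005% Triton X-100. Phosphotyrosine detected by HRP-PY20 antibody, TMB, A450; IC50 from 4- or 5-parameter logistic fit.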

Sequence of histidine-tagged recombinant human TrkA, cytoplasmic domain (P04629 440-796): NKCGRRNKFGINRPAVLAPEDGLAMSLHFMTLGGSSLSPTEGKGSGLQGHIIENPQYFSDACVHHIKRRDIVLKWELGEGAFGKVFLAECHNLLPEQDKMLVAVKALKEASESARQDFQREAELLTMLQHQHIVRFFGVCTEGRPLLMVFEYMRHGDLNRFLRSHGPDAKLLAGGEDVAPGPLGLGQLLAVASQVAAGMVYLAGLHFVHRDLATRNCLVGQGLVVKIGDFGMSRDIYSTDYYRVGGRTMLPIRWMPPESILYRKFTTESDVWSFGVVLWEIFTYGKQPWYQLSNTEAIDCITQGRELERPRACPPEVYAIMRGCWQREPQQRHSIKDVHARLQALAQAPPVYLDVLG

Compound	IC50 [nM]
Cc1cccc(C(=O)Nc2cnn3ccc(N4CCC[C@@H]4c4cc(F)ccc4F)nc23)n1 [Example 60, (R)—N-(5-(2-(2,5-difluorophenyl)pyrrolidin-1-yl)pyrazolo[1,5-a]pyrimidin-3-yl)-6-methylpicolinamide]	4.2
C[C@H]1CN(C(=O)Nc2cnn3ccc(N4CCC[C@@H]4c4cc(F)ccc4Cl)nc23)CCN1 [Example 25, (S)—N-(5-((R)-2-(2-chloro-5-fluorophenyl)pyrrolidin-1-yl)pyrazolo[1,5-a]pyrimidin-3-yl)-3-methylpiperazine-1-carboxamide hydrochloride]	82.3
O=C(Nc1cnn2ccc(N3CCC[C@@H]3c3cccc(F)c3)nc12)N1CCOCC1 [Example 9, (R)—N-(5-(2-(3-fluorophenyl)pyrrolidin-1-yl)pyrazolo[1,5-a]pyrimidin-3-yl)morpholine-4-carboxamide]	821
O=C(Nc1cnn2ccc(N3CCC[C@@H]3c3cccc(F)c3)nc12)c1ccncc1 [Example 77, (R)—N-(5-(2-(3-fluorophenyl)pyrrolidin-1-yl)pyrazolo[1,5-a]pyrimidin-3-yl)isonicotinamide]	71.8
O=C(Nc1cnn2ccc(N3CCC[C@@H]3c3cccc(F)c3)nc12)c1ccccn1 [Example 68, (R)—N-(5-(2-(3-fluorophenyl)pyrrolidin-1-yl)pyrazolo[1,5-a]pyrimidin-3-yl)picolinamide]	4
O=C(Nc1cnn2ccc(N3CCC[C@@H]3c3cc(F)ccc3C(F)F)nc12)N1CC[C@@H](O)C1 [Example 36, (R)—N-(5-((R)-2-(2-(difluoromethyl)-5-fluorophenyl)pyrrolidin-1-yl)pyrazolo[1,5-a]pyrimidin-3-yl)-3-hydroxypyrrolidine-1-carboxamide]	18
O=C(Nc1cnn2ccc(N3CCC[C@@H]3c3cc(F)ccc3F)nc12)C1(C(F)(F)F)CC1 [Example 51, (R)—N-(5-(2-(2,5-difluorophenyl)pyrrolidin-1-yl)pyrazolo[1,5-a]pyrimidin-3-yl)-1-(trifluoromethyl)cyclopropanecarboxamide]	5.2

Next, values leading:

IC50 [nM]	Compound
5.7	O=C(Nc1cnn2ccc(N3CCC[C@@H]3c3cc(F)ccc3C(F)(F)F)nc12)N1CC[C@@H](O)C1 [Example 85, (R)—N-(5-((R)-2-(5-fluoro-2-(trifluoromethyl)phenyl)pyrrolidin-1-yl)pyrazolo[1,5-a]pyrimidin-3-yl)-3-hydroxypyrrolidine-1-carboxamide]
10.2	COc1ccc(F)cc1[C@H]1CCCN1c1ccn2ncc(NC(=O)N3CCC[C@H](O)C3)c2n1 [Example 91, (S)—N-(5-((R)-2-(5-fluoro-2-methoxyphenyl)pyrrolidin-1-yl)pyrazolo[1,5-a]pyrimidin-3-yl)-3-hydroxypiperidine-1-carboxamide]
20.3	O=C(Nc1cnn2ccc(N3CCC[C@@H]3c3cc(F)ccc3F)nc12)[C@H]1CC[C@@H](O)C1 [Example 94, (1S,3R)—N-(5-((R)-2-(2,5-difluorophenyl)pyrrolidin-1-yl)pyrazolo[1,5-a]pyrimidin-3-yl)-3-hydroxycyclopentanecarboxamide]

Reference: US8865698B2, “Method of treatment using substituted pyrazolo[1,5-a]pyrimidine compounds” (Array BioPharma Inc., priority 2008, dated 2014)
